This note sets out measurements from publication PMC6379670, “An ultra-high affinity ligand of HIV-1 TAR reveals the RNA structure recognized by P-TEFb” (Nucleic Acids Research, 2018).

Non-standard residues stand in square brackets, D forms with d. Residues, ends and D or L forms follow the SMILES beside them. Orn = NCCC[C@H](N)C(=O)O; Dab = NCC[C@H](N)C(=O)O Where only a bound is given, the exact number is not on record here.

In one assay the target is HIV-1 TAR RNA. The class given is binding. The conditions noted are these: EMSA, 32P radiolabeled HIV-1 TAR RNA, [RNA]=75pM; Table 1; read-out: K D (HIV). The procedure: Electro Mobility Shift Assays (EMSA) and 2-aminopurine fluorescence ([35]) were used to measure peptide binding. For EMSA, all RNAs were 5′-dephosphorylated ([25],[26]) and 5′-rephosphorylated using T4 Polynucleotide Kinase (PNK); shifts were performed and analyzed as previously described ([14]). The P-TEFb/Tat1:57/AFF4 binding assays were run as described ([11]), with protein samples generously donated by Drs Ursula Schulze-Gahmen and James Hurley, but binding buffers contained 250× fold excess yeast tRNA. JB181-bound samples were prepared with 3× excess labeled HIV-TAR prior to titration with the pre-formed P-TEFb/Tat1:57/AFF4 complex.
Fig. S1. a) HIV-1 TAR, BIV TAR and 7SK-SL4 RNAs have similar secondary structures, but the JB181 peptide discriminates between them. […]
tightly than BIV TAR (3.3 nM) or 7SK (>3 μM) RNAs. b) EMSA of representative JB-peptides with 32P radiolabeled HIV-1 TAR RNA ([RNA]=75pM). The peptide concentration increases from left to right, as indicated. The dissociation constant can be estimated by the peptide concentration where there is an approximate 1:1 ratio (as established by visual inspection) between free RNA and complex, since the RNA concentration is much lower than the KD.
(1 picture or pasted object on this page, not shown here)
A general note: In EMSA bound probe runs differently from free probe, usually more slowly.
As to `CC[C@H](C)[C@@H]1NC(=O)[C@H](CCCNC(=N)N)NC(=O)[C@H](CCCNC(=N)N)NC(=O)CNC(=O)[C@H](CCCCN)NC(=O)[C@H](CCCNC(=N)N)NC(=O)[C@H]([C@@H](C)O)NC(=O)[C@H](CCCNC(=N)N)NC(=O)[C@H](C(C)C)NC(=O)[C@H](CCCN)NC(=O)[C@@H]2CCCN2C(=O)[C@H]2CCCN2C(=O)[C@H]([C@@H](C)CC)NC(=O)[C@H](CCCNC(=N)N)NC1=O` [JB58] (cyclo([Orn]VRTRKGRRIRI[dP]P)), the Kd worked out at 3 ± 0.3 nM.

For `CC[C@H](C)[C@@H]1NC(=O)[C@H](CCCNC(=N)N)NC(=O)[C@H](CCCNC(=N)N)NC(=O)CNC(=O)[C@H](CCCCN)NC(=O)[C@H](CCCNC(=N)N)NC(=O)[C@H]([C@@H](C)O)NC(=O)[C@H](CCCNC(=N)N)NC(=O)[C@H](C(C)C)NC(=O)[C@H](CCN)NC(=O)[C@@H]2CCCN2C(=O)[C@H]2CCCN2C(=O)[C@H]([C@@H](C)CC)NC(=O)[C@H](CCCNC(=N)N)NC1=O` [JB59] (cyclo([Dab]VRTRKGRRIRI[dP]P)), the Kd stood at 1 ± 0.3 nM.

As to `CC[C@H](C)[C@@H]1NC(=O)[C@H](CCCNC(=N)N)NC(=O)[C@H](CCCNC(=N)N)NC(=O)CNC(=O)[C@H](CCCCN)NC(=O)[C@H](CCCNC(=N)N)NC(=O)[C@H]([C@@H](C)O)NC(=O)[C@H](CCCNC(=N)N)NC(=O)[C@H](C(C)C)NC(=O)[C@H](CCN)NC(=O)[C@@H]2CCCN2C(=O)[C@H]2CCCN2C(=O)[C@H](CC(C)C)NC(=O)[C@H](CCCNC(=N)N)NC1=O` [JB185] (cyclo([Dab]VRTRKGRRIRL[dP]P)), the Kd was found to be 0.5 ± 0.1 nM.

Staying with this assay, now noted: EMSA; positional scanning library, Table S1; with tRNA; read-out: Kd (nM) w/tRNA.
As to `CC[C@H](C)[C@@H]1NC(=O)[C@H](CCCNC(=N)N)NC(=O)[C@H](CCCNC(=N)N)NC(=O)CNC(=O)[C@H](CCCCN)NC(=O)[C@H](CCCNC(=N)N)NC(=O)[C@H]([C@@H](C)O)NC(=O)[C@H](CCCNC(=N)N)NC(=O)[C@H](C(C)C)NC(=O)[C@H](CCC(N)=O)NC(=O)[C@@H]2CCCN2C(=O)[C@H]2CCCN2C(=O)[C@H]([C@@H](C)CC)NC(=O)[C@H](CCCNC(=N)N)NC1=O` [JB-61] (cyclo(QVRTRKGRRIRI[dP]P)), the Kd was more than 1000 nM.

As for `CC[C@H](C)[C@@H]1NC(=O)[C@H](CCCNC(=N)N)NC(=O)[C@H](CCCNC(=N)N)NC(=O)CNC(=O)[C@H](CCCCN)NC(=O)[C@H](CCCNC(=N)N)NC(=O)[C@H]([C@@H](C)O)NC(=O)[C@H](CCCNC(=N)N)NC(=O)[C@H](CC(=O)O)NC(=O)[C@H](CCCNC(=N)N)NC(=O)[C@@H]2CCCN2C(=O)[C@H]2CCCN2C(=O)[C@H]([C@@H](C)CC)NC(=O)[C@H](CCCNC(=N)N)NC1=O` [JB-64] (cyclo(RDRTRKGRRIRI[dP]P)), the Kd is more than 1000 nM.

Take `CC[C@H](C)[C@@H]1NC(=O)[C@H](CCCNC(=N)N)NC(=O)[C@H](CCCNC(=N)N)NC(=O)CNC(=O)[C@H](CCCCN)NC(=O)[C@H](CCC(N)=O)NC(=O)[C@H]([C@@H](C)O)NC(=O)[C@H](CCCNC(=N)N)NC(=O)[C@H](C(C)C)NC(=O)[C@H](CCCNC(=N)N)NC(=O)[C@@H]2CCCN2C(=O)[C@H]2CCCN2C(=O)[C@H]([C@@H](C)CC)NC(=O)[C@H](CCCNC(=N)N)NC1=O` [JB-67] (cyclo(RVRTQKGRRIRI[dP]P)): the Kd is more than 1000 nM.

For `CC[C@H](C)[C@@H]1NC(=O)[C@H](CCCNC(=N)N)NC(=O)[C@H](CCCNC(=N)N)NC(=O)CNC(=O)[C@H](CCCCN)NC(=O)[C@H](Cc2ccc(O)cc2)NC(=O)[C@H]([C@@H](C)O)NC(=O)[C@H](CCCNC(=N)N)NC(=O)[C@H](C(C)C)NC(=O)[C@H](CCCNC(=N)N)NC(=O)[C@@H]2CCCN2C(=O)[C@H]2CCCN2C(=O)[C@H]([C@@H](C)CC)NC(=O)[C@H](CCCNC(=N)N)NC1=O` [JB-68] (cyclo(RVRTYKGRRIRI[dP]P)), the Kd was more than 1000 nM.

For the molecule `CC[C@H](C)[C@@H]1NC(=O)[C@H](CCCNC(=N)N)NC(=O)[C@H](Cc2ccc(O)cc2)NC(=O)CNC(=O)[C@H](CCCCN)NC(=O)[C@H](CCCNC(=N)N)NC(=O)[C@H]([C@@H](C)O)NC(=O)[C@H](CCCNC(=N)N)NC(=O)[C@H](C(C)C)NC(=O)[C@H](CCCNC(=N)N)NC(=O)[C@@H]2CCCN2C(=O)[C@H]2CCCN2C(=O)[C@H]([C@@H](C)CC)NC(=O)[C@H](CCCNC(=N)N)NC1=O` [JB-69] (cyclo(RVRTRKGYRIRI[dP]P)), the Kd was more than 1000 nM.

On to `CC[C@H](C)[C@@H]1NC(=O)[C@H](CCCNC(=N)N)NC(=O)[C@H](Cc2c[nH]c3ccccc23)NC(=O)CNC(=O)[C@H](CCCCN)NC(=O)[C@H](CCCNC(=N)N)NC(=O)[C@H]([C@@H](C)O)NC(=O)[C@H](CCCNC(=N)N)NC(=O)[C@H](C(C)C)NC(=O)[C@H](CCCNC(=N)N)NC(=O)[C@@H]2CCCN2C(=O)[C@H]2CCCN2C(=O)[C@H]([C@@H](C)CC)NC(=O)[C@H](CCCNC(=N)N)NC1=O` [JB-70] (cyclo(RVRTRKGWRIRI[dP]P)), for which the Kd was more than 1000 nM.

On to `CC[C@H](C)[C@@H]1NC(=O)[C@H](CCCCN)NC(=O)[C@H](CCCNC(=N)N)NC(=O)CNC(=O)[C@H](CCCCN)NC(=O)[C@H](CCCNC(=N)N)NC(=O)[C@H]([C@@H](C)O)NC(=O)[C@H](CCCNC(=N)N)NC(=O)[C@H](C(C)C)NC(=O)[C@H](CCCNC(=N)N)NC(=O)[C@@H]2CCCN2C(=O)[C@H]2CCCN2C(=O)[C@H]([C@@H](C)CC)NC(=O)[C@H](CCCNC(=N)N)NC1=O` [JB-71] (cyclo(RVRTRKGRKIRI[dP]P)), for which the Kd was more than 1000 nM.

`CC[C@H](C)[C@@H]1NC(=O)[C@H](CCCNC(=N)N)NC(=O)[C@H](CCCNC(=N)N)NC(=O)CNC(=O)[C@H](CCCCN)NC(=O)[C@H](CCCNC(=N)N)NC(=O)[C@H]([C@@H](C)O)NC(=O)[C@@H](CCCNC(=N)N)NC(=O)[C@H](C(C)C)NC(=O)[C@H](CCCNC(=N)N)NC(=O)[C@@H]2CCCN2C(=O)[C@H]2CCCN2C(=O)[C@H]([C@@H](C)CC)NC(=O)[C@H](CCCNC(=N)N)NC1=O` [JB-72] (cyclo(RV[dR]TRKGRRIRI[dP]P)): the Kd is more than 1000 nM.

Consider `CC[C@H](C)[C@@H]1NC(=O)[C@H](Cc2ccc(O)cc2)NC(=O)[C@H](CCCNC(=N)N)NC(=O)CNC(=O)[C@H](CCCCN)NC(=O)[C@H](CCCNC(=N)N)NC(=O)[C@H]([C@@H](C)O)NC(=O)[C@H](CCCNC(=N)N)NC(=O)[C@H](C(C)C)NC(=O)[C@H](CCCNC(=N)N)NC(=O)[C@@H]2CCCN2C(=O)[C@H]2CCCN2C(=O)[C@H]([C@@H](C)CC)NC(=O)[C@H](CCCNC(=N)N)NC1=O` [JB-73] (cyclo(RVRTRKGRYIRI[dP]P)), for which the Kd is more than 1000 nM.

For `CC[C@H](C)[C@@H]1NC(=O)[C@H](Cc2c[nH]c3ccccc23)NC(=O)[C@H](CCCNC(=N)N)NC(=O)CNC(=O)[C@H](CCCCN)NC(=O)[C@H](CCCNC(=N)N)NC(=O)[C@H]([C@@H](C)O)NC(=O)[C@H](CCCNC(=N)N)NC(=O)[C@H](C(C)C)NC(=O)[C@H](CCCNC(=N)N)NC(=O)[C@@H]2CCCN2C(=O)[C@H]2CCCN2C(=O)[C@H]([C@@H](C)CC)NC(=O)[C@H](CCCNC(=N)N)NC1=O` [JB-74] (cyclo(RVRTRKGRWIRI[dP]P)), the Kd is more than 1000 nM.

For `CC[C@H](C)[C@@H]1NC(=O)[C@H](CCCNC(=N)N)NC(=O)[C@H](CCCNC(=N)N)NC(=O)CNC(=O)[C@H](CCCCN)NC(=O)[C@H](CCCNC(=N)N)NC(=O)[C@H]([C@@H](C)O)NC(=O)[C@H](CCCNC(=N)N)NC(=O)[C@H](C(C)C)NC(=O)[C@H](CCCNC(=N)N)NC(=O)[C@@H]2CCCN2C(=O)[C@H]2CCCN2C(=O)[C@H]([C@@H](C)CC)NC(=O)[C@H](Cc2c[nH]cn2)NC1=O` [JB-77] (cyclo(RVRTRKGRRIHI[dP]P)), the Kd is more than 1000 nM.

For the molecule `CC[C@H](C)[C@@H]1NC(=O)[C@H](CCCNC(=N)N)NC(=O)[C@H](CCCNC(=N)N)NC(=O)CNC(=O)[C@H](CCCCN)NC(=O)[C@H](CCCNC(=N)N)NC(=O)[C@H]([C@@H](C)O)NC(=O)[C@H](CCCNC(=N)N)NC(=O)[C@H](C(C)C)NC(=O)[C@H](CCCNC(=N)N)NC(=O)[C@@H]2CCCN2C(=O)[C@H]2CCCN2C(=O)[C@H]([C@@H](C)CC)NC(=O)[C@H](Cc2ccc(O)cc2)NC1=O` [JB-78] (cyclo(RVRTRKGRRIYI[dP]P)), the Kd is more than 1000 nM.

As for `CC[C@H](C)[C@@H]1NC(=O)[C@H](CCCNC(=N)N)NC(=O)[C@H](CCCNC(=N)N)NC(=O)CNC(=O)[C@H](CCCCN)NC(=O)[C@H](CCCNC(=N)N)NC(=O)[C@H]([C@@H](C)O)NC(=O)[C@H](CCCNC(=N)N)NC(=O)[C@H](C(C)C)NC(=O)[C@H](CCCNC(=N)N)NC(=O)[C@@H]2CCCN2C(=O)[C@H]2CCCN2C(=O)[C@H]([C@@H](C)CC)NC(=O)[C@H](Cc2c[nH]c3ccccc23)NC1=O` [JB-79] (cyclo(RVRTRKGRRIWI[dP]P)), the Kd was more than 1000 nM.

For the molecule `CC[C@H](C)[C@@H]1NC(=O)[C@H](CCCNC(=N)N)NC(=O)[C@H](CCCNC(=N)N)NC(=O)CNC(=O)[C@H](CCCCN)NC(=O)[C@H](CCCNC(=N)N)NC(=O)[C@H]([C@@H](C)O)NC(=O)[C@H](CCCNC(=N)N)NC(=O)[C@H](C(C)C)NC(=O)[C@H](CCCNC(=N)N)NC(=O)[C@@H]2CCCN2C(=O)[C@H]2CCCN2C(=O)[C@H](C)NC(=O)[C@H](CCCNC(=N)N)NC1=O` [JB-83] (cyclo(RVRTRKGRRIRA[dP]P)), the Kd is more than 1000 nM.
